Converted amounts (≈) assume the structure as drawn.
Assays:
[1] = tested on: Acinetobacter baumanii T6474; test: Bacterial growth minimal inhibitory concentration (microdilution, cation-adjusted Mueller-Hinton Broth); format: cell-based; details: Acinetobacter baumannii, multiply-resistant strain, in particular quinolone resistant
Experimental: (§1) Bacterial Growth Minimal Inhibitory Concentrations:
(§2) Minimal inhibitory concentrations (MICs; mg/l) were determined in cation-adjusted Mueller-Hinton Broth by a microdilution method following the description given in “Methods for Dilution Antimicrobial Susceptibility Tests for Bacteria that Grow Aerobically”, Approved standard, 7th ed., Clinical and Laboratory Standards Institute (CLSI) Document M7-A7, Wayne, Pa., USA, 2006.
(§3) All Example compounds were tested against several Gram positive and Gram negative bacteria. Staphylococcus aureus A798 and Acinetobacter baumanii T6474 are multiply-resistant strains, in particular quinolone resistant.

[2] = tested on: Staphylococcus aureus A798; test: as above; format: cell-based; details: multiply-resistant strain, in particular quinolone resistant, read-out: MIC for S. aureus A798
Experimental: as §1, §2, §3

MIC [1]	MIC [2]	SMILES
0.25 µg/mL	0.125 µg/mL	O=C1COc2ccc(N3C[C@H](CNC4CCN(c5nc6c(cc5F)c(=O)c(C(=O)O)cn6C5CC5)C4)OC3=O)nc2N1 (mixture of isomers) [Example 21, 1-cyclopropyl-6-fluoro-4-oxo-7-((RS)-3-{[(S)-2-oxo-3-(3-oxo-3,4-dihydro-2H-pyrido[3,2-b][1,4]oxazin-6-yl)-oxazolidin-5-ylmethyl]-amino}-pyrrolidin-1-yl)-1,4-dihydro-[1,8]naphthyridine-3-carboxylic acid]
0.125 µg/mL (≈ 0.211 µM)	≤ 0.016 µg/mL	O=C1CSc2ccc(N3C[C@@H](CN4CCN(c5cc6c(cc5F)c(=O)c(C(=O)O)cn6C5CC5)CC4)OC3=O)cc2N1 [Example 1, 1-cyclopropyl-6-fluoro-4-oxo-7-{4-[(R)-2-oxo-3-(3-oxo-3,4-dihydro-2H-benzo[1,4]thiazin-6-yl)-oxazolidin-5-ylmethyl]-piperazin-1-yl}-1,4-dihydro-quinoline-3-carboxylic acid]
0.125 µg/mL (≈ 0.215 µM)	≤ 0.016 µg/mL	O=C1CSc2ccc(N3C[C@@H](CNC4CN(c5nc6c(cc5F)c(=O)c(C(=O)O)cn6C5CC5)C4)OC3=O)cc2N1 [Example 2, 1-cyclopropyl-6-fluoro-4-oxo-7-(3-{[(R)-2-oxo-3-(3-oxo-3,4-dihydro-2H-benzo[1,4]thiazin-6-yl)-oxazolidin-5-ylmethyl]-amino}-azetidin-1-yl)-1,4-dihydro-[1,8]naphthyridine-3-carboxylic acid]
0.063 µg/mL (≈ 0.106 µM)	≤ 0.016 µg/mL	O=C1CSc2ccc(N3C[C@@H](CN4CCN(c5cc6c(cc5F)c(=O)c(C(=O)O)cn6C5CC5)CC4)OC3=O)nc2N1 [Example 3, 1-cyclopropyl-6-fluoro-4-oxo-7-{4-[(R)-2-oxo-3-(3-oxo-3,4-dihydro-2H-pyrido[3,2-b][1,4]thiazin-6-yl)-oxazolidin-5-ylmethyl]-piperazin-1-yl}-1,4-dihydro-quinoline-3-carboxylic acid]
0.125 µg/mL (≈ 0.21 µM)	≤ 0.016 µg/mL	O=C1CSc2ccc(N3C[C@@H](CN4CCN(c5nc6c(cc5F)c(=O)c(C(=O)O)cn6C5CC5)CC4)OC3=O)cc2N1 [Example 4, 1-cyclopropyl-6-fluoro-4-oxo-7-{4-[(R)-2-oxo-3-(3-oxo-3,4-dihydro-2H-benzo[1,4]thiazin-6-yl)-oxazolidin-5-ylmethyl]-piperazin-1-yl}-1,4-dihydro-[1,8]naphthyridine-3-carboxylic acid]
1 µg/mL (≈ 1.86 µM)	≤ 0.016 µg/mL	O=C1CSc2ccc(N3C[C@@H](CNC4CN(c5nc6c(cc5F)c(=O)ccn6C5CC5)C4)OC3=O)cc2N1 [Example 5, 6-((R)-5-{[1-(8-cyclopropyl-3-fluoro-5-oxo-5,8-dihydro-[1,8]naphthyridin-2-yl)-azetidin-3-ylamino]-methyl}-2-oxo-oxazolidin-3-yl)-4H-benzo[1,4]thiazin-3-one]
0.031 µg/mL (≈ 0.0548 µM)	≤ 0.016 µg/mL	O=C1COc2ccc(N3C[C@@H](CNC4CN(c5nc6c(cc5F)c(=O)c(C(=O)O)cn6C5CC5)C4)OC3=O)nc2N1 [Example 6, 1-cyclopropyl-6-fluoro-4-oxo-7-(3-{[(R)-2-oxo-3-(3-oxo-3,4-dihydro-2H-pyrido[3,2-b][1,4]oxazin-6-yl)-oxazolidin-5-ylmethyl]-amino}-azetidin-1-yl)-1,4-dihydro-[1,8]naphthyridine-3-carboxylic acid]
0.25 µg/mL (≈ 0.423 µM)	0.063 µg/mL (≈ 0.106 µM)	COc1c(N2CC(NC[C@@H]3CN(c4ccc5c(c4)NC(=O)CS5)C(=O)O3)C2)ccc2c(=O)c(C(=O)O)cn(C3CC3)c12 [Example 7, 1-cyclopropyl-8-methoxy-4-oxo-7-(3-{[(R)-2-oxo-3-(3-oxo-3,4-dihydro-2H-benzo[1,4]thiazin-6-yl)-oxazolidin-5-ylmethyl]-amino}-azetidin-1-yl)-1,4-dihydro-quinoline-3-carboxylic acid]
0.25 µg/mL (≈ 0.434 µM)	0.063 µg/mL (≈ 0.109 µM)	COc1c(N2CC(NC[C@@H]3CN(c4ccc5c(n4)NC(=O)CO5)C(=O)O3)C2)ccc2c(=O)c(C(=O)O)cn(C3CC3)c12 [Example 8, 1-cyclopropyl-8-methoxy-4-oxo-7-(3-{[(R)-2-oxo-3-(3-oxo-3,4-dihydro-2H-pyrido[3,2-b][1,4]oxazin-6-yl)-oxazolidin-5-ylmethyl]-amino}-azetidin-1-yl)-1,4-dihydro-quinoline-3-carboxylic acid]
0.06 µg/mL (≈ 0.112 µM)	0.063 µg/mL (≈ 0.118 µM)	CCn1cc(C(=O)O)c(=O)c2ccc(N3CC(NC[C@@H]4CN(c5ccc6c(n5)NC(=O)CO6)C(=O)O4)C3)nc21 [Example 9, 1-ethyl-4-oxo-7-(3-{[(R)-2-oxo-3-(3-oxo-3,4-dihydro-2H-pyrido[3,2-b][1,4]oxazin-6-yl)-oxazolidin-5-ylmethyl]-amino}-azetidin-1-yl)-1,4-dihydro-[1,8]naphthyridine-3-carboxylic acid]
0.25 µg/mL (≈ 0.444 µM)	0.063 µg/mL (≈ 0.112 µM)	O=C1CSc2ccc(N3C[C@@H](CNC4CN(c5ccc6c(=O)c(C(=O)O)cn(C7CC7)c6n5)C4)OC3=O)cc2N1 [Example 10, 1-cyclopropyl-4-oxo-7-(3-{[(R)-2-oxo-3-(3-oxo-3,4-dihydro-2H-benzo[1,4]thiazin-6-yl)-oxazolidin-5-ylmethyl]-amino}-azetidin-1-yl)-1,4-dihydro-[1,8]naphthyridine-3-carboxylic acid]
0.063 µg/mL (≈ 0.121 µM)	0.063 µg/mL (≈ 0.121 µM)	Cn1cc(C(=O)O)c(=O)c2ccc(N3CC(NC[C@@H]4CN(c5ccc6c(n5)NC(=O)CO6)C(=O)O4)C3)nc21 [Example 11, 1-methyl-4-oxo-7-(3-{[(R)-2-oxo-3-(3-oxo-3,4-dihydro-2H-pyrido[3,2-b][1,4]oxazin-6-yl)-oxazolidin-5-ylmethyl]-amino}-azetidin-1-yl)-1,4-dihydro-[1,8]naphthyridine-3-carboxylic acid]
≤ 0.016 µg/mL	≤ 0.016 µg/mL	Cn1cc(C(=O)O)c(=O)c2cc(F)c(N3CC(NC[C@@H]4CN(c5ccc6c(n5)NC(=O)CO6)C(=O)O4)C3)nc21 [Example 12, 6-fluoro-1-methyl-4-oxo-7-(3-{[(R)-2-oxo-3-(3-oxo-3,4-dihydro-2H-pyrido[3,2-b][1,4]oxazin-6-yl)-oxazolidin-5-ylmethyl]-amino}-azetidin-1-yl)-1,4-dihydro-[1,8]naphthyridine-3-carboxylic acid]
1 µg/mL (≈ 1.62 µM)	≤ 0.016 µg/mL	O=C1COc2ccc(N3C[C@@H](CNC4CN(c5nc6c(cc5F)c(=O)c(C(=O)O)cn6Cc5ccccc5)C4)OC3=O)nc2N1 [Example 13, 1-benzyl-6-fluoro-4-oxo-7-(3-{[(R)-2-oxo-3-(3-oxo-3,4-dihydro-2H-pyrido[3,2-b][1,4]oxazin-6-yl)-oxazolidin-5-ylmethyl]-amino}-azetidin-1-yl)-1,4-dihydro-[1,8]naphthyridine-3-carboxylic acid]
0.06 µg/mL (≈ 0.11 µM)	0.031 µg/mL (≈ 0.0566 µM)	O=C1COc2ccc(N3C[C@@H](CNC4CN(c5ccc6c(=O)c(C(=O)O)cn(C7CC7)c6n5)C4)OC3=O)nc2N1 [Example 14, 1-cyclopropyl-4-oxo-7-(3-{[(R)-2-oxo-3-(3-oxo-3,4-dihydro-2H-pyrido[3,2-b][1,4]oxazin-6-yl)-oxazolidin-5-ylmethyl]-amino}-azetidin-1-yl)-1,4-dihydro-[1,8]naphthyridine-3-carboxylic acid]
4 µg/mL (≈ 7.02 µM)	0.25 µg/mL (≈ 0.439 µM)	O=C1COc2ccc(N3C[C@@H](CNC4CN(c5nc6c(cc5F)c(=O)c(C(=O)O)cn6CCO)C4)OC3=O)nc2N1 [Example 15, 6-fluoro-1-(2-hydroxy-ethyl)-4-oxo-7-(3-{[(R)-2-oxo-3-(3-oxo-3,4-dihydro-2H-pyrido[3,2-b][1,4]oxazin-6-yl)-oxazolidin-5-ylmethyl]-amino}-azetidin-1-yl)-1,4-dihydro-[1,8]naphthyridine-3-carboxylic acid]
0.125 µg/mL (≈ 0.21 µM)	≤ 0.016 µg/mL	O=C1CSc2ccc(N3C[C@H](CN4CCN(c5nc6c(cc5F)c(=O)c(C(=O)O)cn6C5CC5)CC4)OC3=O)cc2N1 [Example 16, 1-cyclopropyl-6-fluoro-4-oxo-7-{4-[(S)-2-oxo-3-(3-oxo-3,4-dihydro-2H-benzo[1,4]thiazin-6-yl)-oxazolidin-5-ylmethyl]-piperazin-1-yl}-1,4-dihydro-[1,8]naphthyridine-3-carboxylic acid]
≤ 0.016 µg/mL	≤ 0.016 µg/mL	O=C1COc2ccc(N3C[C@@H](CNC4CCN(c5nc6c(cc5F)c(=O)c(C(=O)O)cn6C5CC5)CC4)OC3=O)nc2N1 [Example 17, 1-cyclopropyl-6-fluoro-4-oxo-7-(4-{[(R)-2-oxo-3-(3-oxo-3,4-dihydro-2H-pyrido[3,2-b][1,4]oxazin-6-yl)-oxazolidin-5-ylmethyl]-amino}-piperidin-1-yl)-1,4-dihydro-[1,8]naphthyridine-3-carboxylic acid]
0.25 µg/mL (≈ 0.431 µM)	0.031 µg/mL (≈ 0.0535 µM)	O=C1COc2ccc(N3C[C@@H](CN4CCN(c5nc6c(cc5F)c(=O)c(C(=O)O)cn6C5CC5)CC4)OC3=O)nc2N1 [Example 18, 1-cyclopropyl-6-fluoro-4-oxo-7-{4-[(R)-2-oxo-3-(3-oxo-3,4-dihydro-2H-pyrido[3,2-b][1,4]oxazin-6-yl)-oxazolidin-5-ylmethyl]-piperazin-1-yl}-1,4-dihydro-[1,8]naphthyridine-3-carboxylic acid]
0.063 µg/mL (≈ 0.109 µM)	≤ 0.016 µg/mL	O=C1COc2ccc(N3C[C@H](CN4CCN(c5nc6c(cc5F)c(=O)c(C(=O)O)cn6C5CC5)CC4)OC3=O)nc2N1 [Example 19, 1-cyclopropyl-6-fluoro-4-oxo-7-{4-[(S)-2-oxo-3-(3-oxo-3,4-dihydro-2H-pyrido[3,2-b][1,4]oxazin-6-yl)-oxazolidin-5-ylmethyl]-piperazin-1-yl}-1,4-dihydro-[1,8]naphthyridine-3-carboxylic acid]

SMILES	MIC [1]	MIC [2]
O=C(O)c1cn(C2CC2)c2cc(N3CCNCC3)c(F)cc2c1=O [Cipro, ciprofloxacin, reference compound]	> 32 µg/mL	> 32 µg/mL

— patent publication US9079922B2, “2-oxo-oxazolidin-3,5-diyl antibiotic derivatives” (priority 2011, dated 2015)
